Measured values from ChEMBL document CHEMBL1136555, “Antitumour benzothiazoles. Part 20: 3'-cyano and 3'-alkynyl-substituted 2-(4'-aminophenyl)benzothiazoles as new potent and selective analogues” (Bioorg Med Chem Lett, 2003).

What was measured:
[1] = test system: MDA-MB-468; test: (§1) Inhibitory activity of compound against breast cancer cell line MDA 468, following 72 hr treatment; type: functional; settings: Homo sapiens, MDA-MB-468, 72 h
[2] = test system: MCF7; test: (§2) Inhibitory activity of compound against breast cancer cell line MCF-7, following 72 hr treatment; type: functional; settings: Homo sapiens, MCF7, 72 h
[3] = test system: MCF7; test: as §2; type: functional, cell-based; settings: Homo sapiens, MCF7, 72 h
[4] = test system: MDA-MB-468; test: as §1; type: functional, cell-based; settings: Homo sapiens, MDA-MB-468, 72 h
[5] = test system: T47D; test: Compound tested for growth inhibition of breast cancer cell line T-47-D; type: functional; settings: Homo sapiens
[6] = test system: SK-OV-3; test: Compound tested for growth inhibition of ovarian cancer cell line SK-OV-3; type: functional; settings: Homo sapiens
[7] = test system: OVCAR-5; test: Compound tested for growth inhibition of ovarian cancer cell line OVCAR-5; type: functional; settings: Homo sapiens
[8] = test system: SK-MEL-5; test: Compound tested for growth inhibition of melanoma cell line SK-MEL-5; type: functional; settings: Homo sapiens
[9] = test system: HCT-15; test: Compound tested for growth inhibition of colon cancer cell line HCT-15; type: functional; settings: Homo sapiens
[10] = test system: OVCAR-8; test: Compound tested for growth inhibition of ovarian cancer cell line OVCAR-8; type: functional; settings: Homo sapiens
[11] = test system: HT-29; test: Compound tested for growth inhibition of colon cancer cell line HT-29; type: functional; settings: Homo sapiens
[12] = test system: A498; test: Compound tested for growth inhibition of renal cancer cell line A498; type: functional; settings: Homo sapiens
[13] = test system: UO-31; test: Compound tested for growth inhibition of renal cancer cell line UO-31; type: functional; settings: Homo sapiens
[14] = test system: TK-10; test: Compound tested for growth inhibition of renal cancer cell line TK-10; type: functional; settings: Homo sapiens
[15] = test system: U-251; test: Compound tested for growth inhibition of CNS cancer cell line U251; type: functional; settings: Homo sapiens
[16] = test system: HCT-116; test: Compound tested for growth inhibition of colon cancer cell line HCT116; type: functional; settings: Homo sapiens
[17] = test system: SNB-75; test: Compound tested for growth inhibition of CNS cancer cell line SNB-75; type: functional; settings: Homo sapiens
[18] = test system: KM12; test: Compound tested for growth inhibition of colon cancer cell line KM12; type: functional; settings: Homo sapiens
[19] = test system: SW-620; test: Compound tested for growth inhibition of colon cancer cell line SW-620; type: functional; settings: Homo sapiens
[20] = test system: SF-295; test: Compound tested for growth inhibition of CNS cancer cell line SF-295; type: functional; settings: Homo sapiens
[21] = test system: M14; test: Compound tested for growth inhibition of melanoma cell line M14; type: functional; settings: Homo sapiens
[22] = test system: NCI-H226; test: Compound tested for growth inhibition of non-small cell lung cancer cell line NCI-H226; type: functional; settings: Homo sapiens
[23] = test system: BT-549; test: Compound tested for growth inhibition of breast cancer cell line BT-549; type: functional; settings: Homo sapiens
[24] = test system: Hs-578T; test: Compound tested for growth inhibition of breast cancer cell line HS 578T; type: functional; settings: Homo sapiens
[25] = test system: PC-3; test: Compound tested for growth inhibition of prostate cancer cell line PC-3; type: functional; settings: Homo sapiens
[26] = test system: NCI/ADR-RES; test: Compound tested for growth inhibition of breast cancer cell line NCI/ADR-RES; type: functional; settings: Homo sapiens
[27] = test system: MDA-N; test: Compound tested for growth inhibition of breast cancer cell line MDA-N; type: functional; settings: Homo sapiens
[28] = test system: SNB-19; test: Compound tested for growth inhibition of CNS cancer cell line SNB-19; type: functional; settings: Homo sapiens
[29] = test system: NCI-H460; test: Compound tested for growth inhibition of non-small cell lung cancer cell line NCI-H460; type: functional; settings: Homo sapiens
[30] = test system: MOLT-4; test: Compound tested for growth inhibition of leukemia cell line MOLT-4; type: functional; settings: Homo sapiens
[31] = test system: SN12C; test: Compound tested for growth inhibition of renal cancer cell line SN12C; type: functional; settings: Homo sapiens
[32] = test system: SF-268; test: Compound tested for growth inhibition of CNS cancer cell line SF-268; type: functional; settings: Homo sapiens
[33] = test system: Malme-3M; test: Compound tested for growth inhibition of melanoma cell line MALME-3M; type: functional; settings: Homo sapiens
[34] = test system: RXF 393; test: Compound tested for growth inhibition of renal cancer cell line RFX 393; type: functional; settings: Homo sapiens
[35] = test system: MCF7; test: Compound tested for growth inhibition of breast cancer cell line MCF-7; type: functional; settings: Homo sapiens
[36] = test system: CAKI-1; test: Compound tested for growth inhibition of renal cancer cell line CAKI-1; type: functional; settings: Homo sapiens
[37] = test system: UACC-257; test: Compound tested for growth inhibition of melanoma cell line UACC-257; type: functional; settings: Homo sapiens
[38] = test system: ACHN; test: Compound tested for growth inhibition of renal cancer cell line ACHN; type: functional; settings: Homo sapiens
[39] = test system: OVCAR-3; test: Compound tested for growth inhibition of ovarian cancer cell line OVCAR-3; type: functional; settings: Homo sapiens
[40] = test system: OVCAR-4; test: Compound tested for growth inhibition of ovarian cancer cell line OVCAR-4; type: functional; settings: Homo sapiens
[41] = test system: DU-145; test: Compound tested for growth inhibition of prostate cancer cell line DU-145; type: functional; settings: Homo sapiens
[42] = test system: HOP-62; test: Compound tested for growth inhibition of non-small cell lung cancer cell line HOP-62; type: functional; settings: Homo sapiens
[43] = test system: NCI-H322M; test: Compound tested for growth inhibition of non-small cell lung cancer cell line NCI-H322M; type: functional; settings: Homo sapiens
[44] = test system: A549; test: Compound tested for growth inhibition of non-small cell lung cancer cell line A549/ATCC; type: functional; settings: Homo sapiens
[45] = test system: MDA-MB-231; test: Compound tested for growth inhibition of breast cancer cell line MDA-MB-231/ATCC; type: functional; settings: Homo sapiens
[46] = test system: NCI-H23; test: Compound tested for growth inhibition of non-small cell lung cancer cell line NCI-H23; type: functional; settings: Homo sapiens
[47] = test system: UACC-62; test: Compound tested for growth inhibition of melanoma cell line UACC-62; type: functional; settings: Homo sapiens
[48] = test system: MDA-MB-435; test: Compound tested for growth inhibition of breast cancer cell line MDA-MB-435; type: functional; settings: Homo sapiens
[49] = test system: LOX IMVI; test: Compound tested for growth inhibition of melanoma cell line LOX IMVI; type: functional; settings: Homo sapiens
[50] = test system: SK-MEL-2; test: Compound tested for growth inhibition of melanoma cell line SK-MEL-2; type: functional; settings: Homo sapiens
[51] = test system: IGROV-1; test: Compound tested for growth inhibition of ovarian cancer cell line […]; type: functional; settings: Homo sapiens
[52] = test system: HOP-92; test: Compound tested for growth inhibition of non-small cell lung cancer cell line HOP-92; type: functional; settings: Homo sapiens
[53] = test system: SF-539; test: Compound tested for growth inhibition of CNS cancer cell line SF-539; type: functional; settings: Homo sapiens
[54] = test system: NCI-H522; test: Compound tested for growth inhibition of non-small cell lung cancer cell line NCI-H522; type: functional; settings: Homo sapiens
[55] = test system: SK-MEL-28; test: Compound tested for growth inhibition of melanoma cell line SK-MEL-28; type: functional; settings: Homo sapiens
[56] = test system: K562; test: Compound tested for growth inhibition of leukemia cell line K-562; type: functional; settings: Homo sapiens
[57] = test system: 786-0; test: Compound tested for growth inhibition of renal cancer cell line 786-0; type: functional; settings: Homo sapiens
[58] = test system: RPMI-8226; test: Compound tested for growth inhibition of leukemia cell line RPMI-8226; type: functional; settings: Homo sapiens
[59] = test system: HCC 2998; test: Compound tested for growth inhibition of colon cancer cell line HCC2998; type: functional; settings: Homo sapiens

C#Cc1cc(-c2nc3ccc(F)cc3s2)ccc1N
GI50 [1]: 23 nM | GI50 [2]: 110 nM

C[Si](C)(C)C#Cc1cc(-c2nc3ccc(F)cc3s2)ccc1N
GI50 [1]: 400 nM | GI50 [2]: 680 nM

Nc1ccc(-c2nc3ccccc3s2)cc1
IC50 [3]: < 1 nM | IC50 [4]: < 1 nM

N#Cc1cc(-c2nc3ccc(F)cc3s2)ccc1N
GI50 [1]: 320 nM | GI50 [2]: 820 nM

C#Cc1cc(-c2nc3ccccc3s2)ccc1N
GI50 [1]: 15 nM | GI50 [2]: 49 nM

C[Si](C)(C)C#Cc1cc(-c2nc3ccccc3s2)ccc1N
GI50 [1]: 560 nM | GI50 [2]: 710 nM

C[Si](C)(C)C#Cc1cc(-c2nc3cc(F)ccc3s2)ccc1N
GI50 [1]: 210 nM | GI50 [2]: 160 nM

N#Cc1cc(-c2nc3c(F)cccc3s2)ccc1N
GI50 [1]: 80 nM | GI50 [2]: 180 nM

N#Cc1cc(-c2nc3cc(F)ccc3s2)ccc1N
GI50 [1]: 7.8 nM | GI50 [5]: 14.4 nM | GI50 [6]: 20900 nM | GI50 [7]: 37.1 nM | GI50 [8]: 537 nM | GI50 [9]: 389 nM | GI50 [10]: > 100000 nM | GI50 [11]: 1620 nM | GI50 [12]: 8510 nM | GI50 [13]: 49000 nM | GI50 [14]: 30.2 nM | GI50 [15]: 8710 nM | GI50 [16]: 15800 nM | GI50 [17]: 832 nM | GI50 [18]: 97.7 nM | GI50 [19]: > 100000 nM | GI50 [20]: 16600 nM | GI50 [21]: 25700 nM | GI50 [22]: 14500 nM | GI50 [23]: 3800 nM | GI50 [24]: 8510 nM | GI50 [25]: 24000 nM | GI50 [26]: > 100000 nM | GI50 [27]: > 100000 nM | GI50 [28]: 9120 nM | GI50 [29]: < 10 nM | GI50 [30]: > 100000 nM | GI50 [31]: > 100000 nM | GI50 [32]: 12000 nM | GI50 [33]: > 100000 nM | GI50 [34]: 2400 nM | GI50 [35]: < 10 nM | GI50 [36]: > 100000 nM | GI50 [37]: > 100000 nM | GI50 [38]: 759 nM | GI50 [39]: 28200 nM | GI50 [40]: 1380 nM | GI50 [41]: 51300 nM | GI50 [42]: 17000 nM | GI50 [43]: 11.5 nM | GI50 [44]: 214 nM | GI50 [45]: 7410 nM | GI50 [46]: < 10 nM | GI50 [47]: 6610 nM | GI50 [48]: > 100000 nM | GI50 [2]: 5.7 nM | GI50 [49]: > 100000 nM | GI50 [50]: 13500 nM | GI50 [51]: < 10 nM | GI50 [52]: 2630 nM | GI50 [53]: 8710 nM | GI50 [54]: 28200 nM | GI50 [55]: > 100000 nM | GI50 [56]: > 100000 nM | GI50 [57]: 31600 nM | GI50 [58]: > 100000 nM | GI50 [59]: < 10 nM

C#Cc1cc(-c2nc3c(F)cccc3s2)ccc1N
GI50 [1]: 30 nM | GI50 [2]: 110 nM

N#Cc1cc(-c2nc3ccccc3s2)ccc1N
GI50 [1]: 340 nM | GI50 [2]: 580 nM

C[Si](C)(C)C#Cc1cc(-c2nc3c(F)cccc3s2)ccc1N
GI50 [1]: 230 nM | GI50 [2]: 520 nM

C#Cc1cc(-c2nc3cc(F)ccc3s2)ccc1N
GI50 [1]: 6.8 nM | GI50 [2]: 11 nM
